In ChEMBL document CHEMBL4145553, “Design, synthesis, and biological evaluation of novel amide and hydrazide based thioether analogs targeting Histone deacteylase (HDAC) enzymes” (Eur J Med Chem, 2018):
Activity calls are given as the source filed them. The calls are words filed in the database; no cut-off is given here.

Tests used:
SW-620 = assay: Growth inhibition of human SW620 cells assessed as cell growth at 10^-6 M incubated for 48 hrs by sulforhodamine B assay relative to control; format: functional; details: SW-620, 48 h, read-out: Activity
NCI-H322M [1] = assay: Growth inhibition of human NCI-H322M cells assessed as cell growth at 10^-4 M incubated for 48 hrs by sulforhodamine B assay relative to control; format: functional; details: read-out: Activity
UO-31 = assay: Growth inhibition of human UO31 cells assessed as cell growth at 10^-4 M incubated for 48 hrs by sulforhodamine B assay relative to control; format: functional; details: UO-31, 48 h, read-out: Activity
MDA-MB-435 [2] = assay: Antiproliferative activity against human MDA-MB-435 cells after 24 hrs by MTT assay; format: functional; details: for GI50: Homo sapiens, MDA-MB-435, 24 h
HT-29 [3] = assay: Growth inhibition of human HT-29 cells incubated for 48 hrs by sulforhodamine B assay; format: functional; details: HT-29, 48 h
T47D [4] = assay: Growth inhibition of human T47D cells assessed as cell growth at 10^-7 M incubated for 48 hrs by sulforhodamine B assay relative to control; format: functional; details: read-out: Activity
TK-10 = assay: Growth inhibition of human TK10 cells incubated for 48 hrs by sulforhodamine B assay; format: functional; details: TK-10, 48 h
MDA-MB-468 [5] = assay: Growth inhibition of human MDA-MB-468 cells assessed as cell growth at 10^-5 M incubated for 48 hrs by sulforhodamine B assay relative to control; format: functional; details: MDA-MB-468, 48 h, read-out: Activity
RPMI-8226 = assay: Growth inhibition of human RPMI8226 cells assessed as cell growth at 10^-6 M incubated for 48 hrs by sulforhodamine B assay relative to control; format: functional; details: RPMI-8226, 48 h, read-out: Activity
OVCAR-4 = assay: Growth inhibition of human OVCAR4 cells assessed as cell growth at 10^-4 M incubated for 48 hrs by sulforhodamine B assay relative to control; format: functional; details: OVCAR-4, 48 h, read-out: Activity
KM12 = assay: Growth inhibition of human KM12 cells assessed as cell growth at 10^-8 M incubated for 48 hrs by sulforhodamine B assay relative to control; format: functional; details: KM12, 48 h, read-out: Activity
HT-29 [6] = assay: Growth inhibition of human HT-29 cells assessed as cell growth at 10^-6 M incubated for 48 hrs by sulforhodamine B assay relative to control; format: functional; details: HT-29, 48 h, read-out: Activity
T47D [7] = assay: Growth inhibition of human T47D cells assessed as cell growth at 10^-4 M incubated for 48 hrs by sulforhodamine B assay relative to control; format: functional; details: read-out: Activity
MDA-MB-468 [8] = assay: Growth inhibition of human MDA-MB-468 cells assessed as cell growth at 10^-6 M incubated for 48 hrs by sulforhodamine B assay relative to control; format: functional; details: MDA-MB-468, 48 h, read-out: Activity
MCF7 = assay: Growth inhibition of human MCF7 cells assessed as cell growth at 10^-7 M incubated for 48 hrs by sulforhodamine B assay relative to control; format: functional; details: MCF7, 48 h, read-out: Activity
OVCAR-8 [9] = assay: Growth inhibition of human OVCAR8 cells incubated for 48 hrs by sulforhodamine B assay; format: functional; details: OVCAR-8, 48 h
BT-549 = assay: Growth inhibition of human BT549 cells assessed as cell growth at 10^-8 M incubated for 48 hrs by sulforhodamine B assay relative to control; format: functional; details: BT-549, 48 h, read-out: Activity
NCI-H23 = assay: Growth inhibition of human NCI-H23 cells assessed as cell growth at 10^-8 M incubated for 48 hrs by sulforhodamine B assay relative to control; format: functional; details: NCI-H23, 48 h, read-out: Activity
CAKI-1 = assay: Growth inhibition of human Caki1 cells assessed as cell growth at 10^-5 M incubated for 48 hrs by sulforhodamine B assay relative to control; format: functional; details: CAKI-1, 48 h, read-out: Activity
OVCAR-8 [10] = assay: Growth inhibition of human OVCAR8 cells assessed as cell growth at 10^-4 M incubated for 48 hrs by sulforhodamine B assay relative to control; format: functional; details: OVCAR-8, 48 h, read-out: Activity
DU-145 = assay: Growth inhibition of human DU145 cells assessed as cell growth at 10^-5 M incubated for 48 hrs by sulforhodamine B assay relative to control; format: functional; details: DU-145, 48 h, read-out: Activity
NCI/ADR-RES = assay: Growth inhibition of human NCI/ADR-RES cells assessed as cell growth at 10^-8 M incubated for 48 hrs by sulforhodamine B assay relative to control; format: functional; details: read-out: Activity
SR = assay: Growth inhibition of human SR cells assessed as cell growth at 10^-4 M incubated for 48 hrs by sulforhodamine B assay relative to control; format: functional; details: read-out: Activity
MDA-MB-435 [11] = assay: Downregulation of HDAC1 mRNA expression in human MDA-MB-435 cells by qRT-PCR method; format: functional, cell-based
SK-MEL-28 = assay: Growth inhibition of human SK-MEL-28 cells incubated for 48 hrs by sulforhodamine B assay; format: functional; details: SK-MEL-28, 48 h
HCC 2998 = assay: Growth inhibition of human HCC2998 cells assessed as cell growth at 10^-7 M incubated for 48 hrs by sulforhodamine B assay relative to control; format: functional; details: HCC 2998, 48 h, read-out: Activity
MDA-MB-435 [12] = assay: Downregulation of HDAC8 mRNA expression in human MDA-MB-435 cells by qRT-PCR method; format: functional, cell-based
NCI-H322M [13] = assay: Growth inhibition of human NCI-H322M cells incubated for 48 hrs by sulforhodamine B assay; format: functional
NCI-H460 = assay: Growth inhibition of human NCI-H460 cells assessed as cell growth at 10^-4 M incubated for 48 hrs by sulforhodamine B assay relative to control; format: functional; details: NCI-H460, 48 h, read-out: Activity
Malme-3M = assay: Growth inhibition of human MALME-3M cells assessed as cell growth at 10^-6 M incubated for 48 hrs by sulforhodamine B assay relative to control; format: functional; details: read-out: Activity
[14] = read-out: LC50 (the source's name)
[15] = read-out: pLC50 (the source's name) (converted)

Compound: CCS/C(Nc1ccccc1)=C(\C#N)C(=O)N/N=C\c1ccc(Cl)cc1Cl
- growth at 1 µM (SW-620): 88%
- growth at 100 µM (NCI-H322M [1]): 32%
- growth at 100 µM (UO-31): 41%
- Activity (MDA-MB-435 [2]): Dose-dependent effect
- GI50 (MDA-MB-435 [2]): 0.42 µM
- GI50 (HT-29 [3]; read-out: GI50): 3.7 µM
- CC50 (HT-29 [3]; [14]): > 100 µM
- TGI (HT-29 [3]; read-out: TGI): > 100 µM
- GI50 (HT-29 [3]; read-out: pGI50 (converted)): 3.72 µM
- CC50 (HT-29 [3]; [15]): > 100 µM
- TGI (HT-29 [3]; read-out: pTGI (converted)): > 100 µM
- growth at 0.1 µM (T47D [4]): 95%
- GI50 (TK-10; read-out: GI50): 10.2 µM
- CC50 (TK-10; [14]): > 100 µM
- TGI (TK-10; read-out: TGI): > 100 µM
- GI50 (TK-10; read-out: pGI50 (converted)): 10.2 µM
- CC50 (TK-10; [15]): > 100 µM
- TGI (TK-10; read-out: pTGI): > 100 µM
- growth at 10 µM (MDA-MB-468 [5]): -3%
- growth at 1 µM (RPMI-8226): 92%
- growth at 100 µM (OVCAR-4): 9%
- growth at 0.01 µM (KM12): 101%
- growth at 1 µM (HT-29 [6]): 101%
- growth at 100 µM (T47D [7]): 17%
- growth at 1 µM (MDA-MB-468 [8]): 88%
- growth at 0.1 µM (MCF7): 89%
- GI50 (OVCAR-8 [9]; read-out: GI50): 4.81 µM
- CC50 (OVCAR-8 [9]; [14]): > 100 µM
- TGI (OVCAR-8 [9]; read-out: TGI): > 100 µM
- GI50 (OVCAR-8 [9]; read-out: pGI50 (converted)): 4.79 µM
- CC50 (OVCAR-8 [9]; [15]): > 100 µM
- TGI (OVCAR-8 [9]; read-out: pTGI): > 100 µM
- growth at 0.01 µM (BT-549): 98%
- growth at 0.01 µM (NCI-H23): 105%
- growth at 10 µM (CAKI-1): 23%
- growth at 100 µM (OVCAR-8 [10]): 20%
- growth at 10 µM (DU-145): 12%
- growth at 0.01 µM (NCI/ADR-RES): 98%
- growth at 100 µM (SR): 7%
- Activity (MDA-MB-435 [11]): Active
- GI50 (SK-MEL-28; read-out: GI50): 23.6 µM
- CC50 (SK-MEL-28; [14]): > 100 µM
- TGI (SK-MEL-28; read-out: TGI): > 100 µM
- GI50 (SK-MEL-28; read-out: pGI50 (converted)): 23.4 µM
- CC50 (SK-MEL-28; [15]): > 100 µM
- TGI (SK-MEL-28; read-out: pTGI): > 100 µM
- growth at 0.1 µM (HCC 2998): 100%
- Activity (MDA-MB-435 [12]): Active
- GI50 (NCI-H322M [13]; read-out: GI50): 6.87 µM
- CC50 (NCI-H322M [13]; [14]): > 100 µM
- TGI (NCI-H322M [13]; read-out: TGI): > 100 µM
- GI50 (NCI-H322M [13]; read-out: pGI50 (converted)): 6.92 µM
- CC50 (NCI-H322M [13]; [15]): > 100 µM
- TGI (NCI-H322M [13]; read-out: pTGI): > 100 µM
- growth at 100 µM (NCI-H460): 6%
- growth at 1 µM (Malme-3M): 79%

Compound: CCS/C(Nc1ccccc1)=C(\C#N)C(=O)Nc1ccc(OC)cc1
- growth at 1 µM (SW-620): 70%
- growth at 100 µM (NCI-H322M [1]): 37%
- growth at 100 µM (UO-31): 16%
- Activity (MDA-MB-435 [2]): Dose-dependent effect
- GI50 (MDA-MB-435 [2]): 0.37 µM
- GI50 (HT-29 [3]; read-out: GI50): 3.47 µM
- CC50 (HT-29 [3]; [14]): > 100 µM
- TGI (HT-29 [3]; read-out: TGI): 33.3 µM
- GI50 (HT-29 [3]; read-out: pGI50 (converted)): 3.47 µM
- CC50 (HT-29 [3]; [15]): > 100 µM
- TGI (HT-29 [3]; read-out: pTGI (converted)): 33.1 µM
- growth at 0.1 µM (T47D [4]): 89%
- GI50 (TK-10; read-out: GI50): 24.3 µM
- CC50 (TK-10; [14]): > 100 µM
- TGI (TK-10; read-out: TGI): > 100 µM
- GI50 (TK-10; read-out: pGI50 (converted)): 24.5 µM
- CC50 (TK-10; [15]): > 100 µM
- TGI (TK-10; read-out: pTGI): > 100 µM
- growth at 10 µM (MDA-MB-468 [5]): -9%
- growth at 1 µM (RPMI-8226): 79%
- growth at 100 µM (OVCAR-4): 29%
- growth at 0.01 µM (KM12): 100%
- growth at 1 µM (HT-29 [6]): 99%
- growth at 100 µM (T47D [7]): 3%
- growth at 1 µM (MDA-MB-468 [8]): 60%
- growth at 0.1 µM (MCF7): 93%
- GI50 (OVCAR-8 [9]; read-out: GI50): 4.37 µM
- CC50 (OVCAR-8 [9]; [14]): > 100 µM
- TGI (OVCAR-8 [9]; read-out: TGI): > 100 µM
- GI50 (OVCAR-8 [9]; read-out: pGI50 (converted)): 4.37 µM
- CC50 (OVCAR-8 [9]; [15]): > 100 µM
- TGI (OVCAR-8 [9]; read-out: pTGI): > 100 µM
- growth at 0.01 µM (BT-549): 98%
- growth at 0.01 µM (NCI-H23): 97%
- growth at 10 µM (CAKI-1): 29%
- growth at 100 µM (OVCAR-8 [10]): 10%
- growth at 10 µM (DU-145): 13%
- growth at 0.01 µM (NCI/ADR-RES): 100%
- growth at 100 µM (SR): 16%
- Activity (MDA-MB-435 [11]): Active
- GI50 (SK-MEL-28; read-out: GI50): 15.3 µM
- CC50 (SK-MEL-28; [14]): > 100 µM
- TGI (SK-MEL-28; read-out: TGI): > 100 µM
- GI50 (SK-MEL-28; read-out: pGI50 (converted)): 15.5 µM
- CC50 (SK-MEL-28; [15]): > 100 µM
- TGI (SK-MEL-28; read-out: pTGI): > 100 µM
- growth at 0.1 µM (HCC 2998): 92%
- Activity (MDA-MB-435 [12]): Active
- GI50 (NCI-H322M [13]; read-out: GI50): 5.81 µM
- CC50 (NCI-H322M [13]; [14]): > 100 µM
- TGI (NCI-H322M [13]; read-out: TGI): > 100 µM
- GI50 (NCI-H322M [13]; read-out: pGI50 (converted)): 5.75 µM
- CC50 (NCI-H322M [13]; [15]): > 100 µM
- TGI (NCI-H322M [13]; read-out: pTGI): > 100 µM
- growth at 100 µM (NCI-H460): -9%
- growth at 1 µM (Malme-3M): 79%
